{
  "source": "patent US7973217B2",
  "about": "“Stem-regulated, plant defense promoter and uses thereof in tissue-specific expression in monocots” (The Texas A&M University System, priority 2003, dated 2011)",
  "format_in_all_cases": "in vivo",
  "key": {"[1]": {"tested_on": "OMT", "experiment": "cDNA microarray of OMT expression in sugarcane plants sprayed with defense-inducing agents", "details": "treated (Cy5) v. untreated control (Cy3), normalized", "procedure": "The 251 cDNA clones used for microarray analysis in Example 1 were further used to assess the effects of defense-inducing agents on the expression of the stem-specific genes.\nTotal RNA was extracted from wild type sugarcane plants (3 months-old) that were sprayed with the defense-inducing agents jasmonic acid (JA) (25µM in 0.05.percent.Tween 20), methyl-jasmonate (MeJA) (200µM in 0.1.percent.ethanol and 0.05.percent.Tween 20) or salicylic acid (SA) (5 mM in 0.05.percent.Tween 20) for two time periods, 24 and 48 hours. The microarray including 251 cDNAs was probed with fluorescently labeled cDNAs synthesized from 1µg of total amplified RNA. One cDNA probe (e.g. RNA from plant treated with a defense-inducing agent) is labeled with one dye (Cy5), and the second (e.g. RNA from untreated control plant) with another dye (Cy3)\nThe normalized ratio of Cy5 v."}, "[2]": {"tested_on": "GUS", "experiment": "Histochemical transient GUS expression in particle bombarded maize stem tissue", "details": "versus Ubiquitin 1 promoter", "excerpt": "(§1) FIG. 14 is a photomicrograph of particle bombarded maize and sorghum stem tissues showing histochemical localization of transient GUS expression driven by the stem-regulated OMT promoter or the constitutive maize ubiquitinl promoter."}, "[3]": {"tested_on": "GUS", "experiment": "Histochemical transient GUS expression in particle bombarded sorghum stem tissue", "details": "versus Ubiquitin 1 promoter", "excerpt": "as §1"}},
  "data": [
    {"molecule": "O=C(O)c1ccccc1O", "note": "[SA, salicylic acid]", "values": [
      {"measurement": "Cy5/Cy3 Ratios (Upregulation) for OMT", "setting": "[1]; 48 hours after spraying", "value": 2.00}
    ]},
    {"molecule": "CC/C=C\\CC1C(=O)CCC1CC(=O)OC", "note": "(stereo not shown) [MeJA, methyl-jasmonate]", "values": [
      {"measurement": "Cy5/Cy3 Ratios (Upregulation) for OMT", "setting": "[1]; 24 hours after spraying", "value": 0.70},
      {"measurement": "Cy5/Cy3 Ratios (Upregulation) for OMT", "setting": "[1]; 48 hours after spraying", "value": 0.97}
    ]},
    {"molecule": "OMT promoter: sugarcane o-methyl transferase gene promoter, SEQ ID NO:1, directing stem-regulated, defense-inducible expression", "values": [
      {"measurement": "Transient expression of GUS in stem tissue", "setting": "[2]", "value": "comparable to that obtained with the Ubiquitin 1 promoter"},
      {"measurement": "Transient expression of GUS in stem tissue", "setting": "[3]", "value": "comparable to that obtained with the Ubiquitin 1 promoter"}
    ]},
    {"molecule": "CC/C=C\\C[C@H]1C(=O)CC[C@@H]1CC(=O)O", "note": "[JA, jasmonic acid]", "values": [
      {"measurement": "Cy5/Cy3 Ratios (Upregulation) for OMT", "setting": "[1]; 24 hours after spraying", "value": 0.99},
      {"measurement": "Cy5/Cy3 Ratios (Upregulation) for OMT", "setting": "[1]; 48 hours after spraying", "value": 2.00}
    ]}
  ]
}
